Results from patent US7504410B2, “Chk-, Pdk- and Akt-inhibitory pyrimidines, their production and use as pharmaceutical agents” (Schering Aktiengesellschaft, priority 2002, dated 2009).

Target: not listed separately
Assay: PDK-1-dependent activation and subsequent enzymatic activity of AKT2 (SPA)
Assay type: biochemical, human
Conditions: AKT2 activated by PDK-1 in the assay; read-out: Akt-2 inhibition IC50
Description: PDK-1-dependent activation and subsequent enzymatic activity of AKT2: Purified human AKT2 activity was routinely measured in an assay in which the enzyme was first activated by PDK-1 in the presence of phosphatidylinositol-4,5-bisphosphate (PIP2). Once activated, AKT2-dependent phosphorylation of a peptide substrate was measured by scintillation proximity assay (SPA).
Phospholipid vesicles were prepared as follows: 2.2 mg each of phosphatidylcholine (Sigma Cat # P-1287) and phosphatidylserine (Sigma Cat #P-6641) were transferred to a borosilicate glass test tube and dried down under nitrogen. 1 mg of PIP2 (Biomol Cat #PH-106) was suspended in 9.5 ml of 10 mM HEPES, pH 7.5 and transferred to the dried lipids. The tube was vortexed until a milky suspension was produced. Then the tube was placed in a ice water-jacketed cup horn sonicator (Branson Instruments) and subjected to sonication for 20 min at medium power until a translucent phospholipid vesicle preparation was obtained. Aliquots of the vesicle suspension were frozen at −80 °C until needed.
Assays were performed in 96-well polypropylene V-bottom plates. Incubations were carried out for 2 hr at room temperature. The assay mixture contained in a volume of 60 μL: 15 mM MOPS, pH 7.2, 1 mg/ml bovine serum albumin, 18 mM betaglycerolphosphate, 0.7 mM dithiothreitol, 3 mM EGTA, 10 mM MgOAc, 7.5 (M ATP, 0.2 μCi of [γ-^33P]ATP, 7.5 μM biotinylated peptide substrate (biotin-ARRRDGGGAQPFRPRAATF), 0.5 μL of PIP2-containing phospholipid vesicles, 60 pg of purified recombinant human PDK-1, and 172 ng of purified recombinant human AKT2. Test compounds were added from stock solutions in DMSO. The final concentration of DMSO was 2.5%. Following incubation, 10 μL of the assay mixture was transferred to a 96-well clear-bottom polystyrene plate (Wallac Isoplate) containing 0.33 mg of streptavidin-coated SPA beads (Amersham Cat. # RPNQ0007) suspended in 200 μL of phosphate-buffered saline, pH 7.4, containing 50 mM EDTA and 0.1% Triton X-100. After brief shaking, the SPA beads were allowed to settle to the bottom of the plate overnight at room temperature. […] PDK-1 was added at sub-optimal levels so that the assay could sensitively detect inhibitors of AKT2 activation as well as direct AKT2 kinase inhibitors. The z′-factor for the assay was greater than 0.7.
Phosphorylation was readily observed, however, upon addition of purified activated human AKT1 (purchased from Upstate Biotechnology), independent of the presence or absence of added PDK-1 or PIP2-containing vesicles.

IC50 [nM]	Structure (SMILES)
44	CC(C)(C(N)=O)C(=O)NCCCNc1nc(Nc2cccc(NC(=O)[C@@H](N)c3ccccc3)c2)ncc1Br [Example 521]
4	CN1CC(=O)N(c2cccc(Nc3ncc(Br)c(NCCCNC(=O)[C@@H]4CSC(=O)N4)n3)c2)C1=O [Example 546]
19	CC(C)(C(N)=O)C(=O)NCCCNc1nc(Nc2cccc(N3C(=O)CNC3=O)c2)ncc1Br [Example 540]

The next lines start with the compound.

Structure (SMILES)	IC50 [nM]
NC(=O)C1(C(=O)NCCCNc2nc(Nc3cccc(NC(=O)[C@@H]4CCCN4)c3)ncc2Br)CC1 [Example 492]	23
CC(C)(C(N)=O)C(=O)NCCCNc1nc(Nc2cccc(NC(=O)[C@H](N)Cc3ccccc3)c2)ncc1Br [Example 504]	24
O=C(Nc1cccc(Nc2ncc(Br)c(NCCc3c[nH]cn3)n2)c1)N1CCCC1 [Example 220]	6

Target: T1, VEGFR II (KDR) (Homo sapiens, UniProt P35968)
T1 construct: GST; made in house; host or cells: Sf-9 insect cells
Assay: KDR kinase assay (HTRF)
Assay type: biochemical
Conditions: not given
Excerpt: Recombinant KDR-GST-fusion protein, expressed in insect cells (Sf-9) and purified by Glutathion affinity chrormatography was used as kinase. Alternatively, commercially available GST-KDR-fusion protein (Proqinase, Freiburg i.Brsg., Germany) can be used. As substrate for the kinase reaction the biotinylated copolymer poly-(Glu, Tyr-4:1) which can be purchased e.g. from the company Cisbiointernational (Marcoule, France).
In a black low volume 384 well microtiterplate (Greiner, Frickenhausen, Germany) KDR (enzyme amount depending on lot, adjusted to give an dF of about 300-400) was incubated for 20 min at 22° C. in the presence of different concentrations of test compounds (0 μM and concentrations in the range 0.001-30 μM) in 15 μl assay buffer [50 mM Hepes/NaOH pH7.0, 25 mM MgCl2, 5 mM MnCl2, 0.5 mM sodium ortho-vanadate, 1.0 mM dithiothreitol, 1 μM adenosine-tri-phosphate (ATP), 23.5 μg/ml substrate [biotinylated poly-(Glu, Tyr; 4:1)], 1.5% (v/v) dimethylsulfoxide]. The reaction was stopped by the addition of 5 μl of a solution of the detection reagents [0.3 μg/ml Eu-W1024-labeled antiphosphotyrosine antibody (PT66) (Perkin-Elmer) and 4.125 μg/ml […] (Cisbiointernational, Marcoule, France)] in an aqueous EDTA-solution (250 mM EDTA, 0.1% (w/v) bovine serum albumine in 100 mM HEPES/NaOH pH 7.0).
The resulting mixture was incubated further 2 h at 22° C. to allow the binding of the biotinylated substrate and product to the SA-XL-665 and the EU labeled anti-phosphotyrosine antibody. Subsequently the amount of phosphate incorporated into the substrate was evaluated by resonance energy transfer measurement in a HTRF reader (Discovery, Perkin-Elmer).
The IC50 values are determined from the inhibitor concentration that is necessary to inhibit the phosphate incorporation to 50% of the uninhibited incorporation after removal of the blank reading (EDTA-stopped reaction).

T1 sequence (P35968 20-1356, species assumed): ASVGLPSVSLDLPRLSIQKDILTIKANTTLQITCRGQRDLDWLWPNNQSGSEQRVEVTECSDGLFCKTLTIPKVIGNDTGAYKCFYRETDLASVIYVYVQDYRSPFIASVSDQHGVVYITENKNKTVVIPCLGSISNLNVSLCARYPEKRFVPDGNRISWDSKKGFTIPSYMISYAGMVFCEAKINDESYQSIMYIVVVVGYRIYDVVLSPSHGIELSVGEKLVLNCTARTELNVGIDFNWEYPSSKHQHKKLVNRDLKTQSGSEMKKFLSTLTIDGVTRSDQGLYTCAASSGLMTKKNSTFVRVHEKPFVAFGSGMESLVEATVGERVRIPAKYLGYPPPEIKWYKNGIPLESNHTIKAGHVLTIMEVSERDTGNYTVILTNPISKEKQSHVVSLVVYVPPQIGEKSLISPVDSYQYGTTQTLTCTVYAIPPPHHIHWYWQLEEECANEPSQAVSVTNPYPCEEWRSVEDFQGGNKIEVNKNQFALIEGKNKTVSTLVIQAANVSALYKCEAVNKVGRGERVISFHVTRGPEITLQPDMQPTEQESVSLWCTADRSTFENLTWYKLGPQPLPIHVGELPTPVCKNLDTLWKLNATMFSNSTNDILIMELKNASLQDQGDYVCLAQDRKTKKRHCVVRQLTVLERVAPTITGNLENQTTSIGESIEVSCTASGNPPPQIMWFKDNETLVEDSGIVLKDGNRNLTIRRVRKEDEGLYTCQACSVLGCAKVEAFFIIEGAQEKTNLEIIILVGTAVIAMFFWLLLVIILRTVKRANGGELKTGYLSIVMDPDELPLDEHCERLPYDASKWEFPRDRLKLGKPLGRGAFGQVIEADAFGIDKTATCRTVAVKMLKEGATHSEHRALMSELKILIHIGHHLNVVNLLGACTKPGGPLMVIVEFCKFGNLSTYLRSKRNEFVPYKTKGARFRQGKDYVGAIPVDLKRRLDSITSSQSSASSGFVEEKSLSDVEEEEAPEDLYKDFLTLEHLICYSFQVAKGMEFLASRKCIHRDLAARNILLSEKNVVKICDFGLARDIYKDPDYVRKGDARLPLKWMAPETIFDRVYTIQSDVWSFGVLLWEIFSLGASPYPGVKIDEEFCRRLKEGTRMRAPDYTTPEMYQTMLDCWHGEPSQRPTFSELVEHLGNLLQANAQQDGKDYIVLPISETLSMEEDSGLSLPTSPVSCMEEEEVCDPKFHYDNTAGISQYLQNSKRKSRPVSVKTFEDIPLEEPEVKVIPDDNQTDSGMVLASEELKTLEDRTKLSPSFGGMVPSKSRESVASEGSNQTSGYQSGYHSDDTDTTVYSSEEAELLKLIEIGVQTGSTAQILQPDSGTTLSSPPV

IC50 [nM]	Structure (SMILES)
1400	C[C@@H](N)C(=O)NCCCNc1nc(Nc2cccc(NC(=O)N3CCCC3)c2)ncc1Br [Example 512]
4	CN1CC(=O)N(c2cccc(Nc3ncc(Br)c(NCCCNC(=O)[C@@H]4CSC(=O)N4)n3)c2)C1=O [Example 546]
10.6	O=C1CC[C@@H](C(=O)NCCCNc2nc(Nc3cccc(N4C(=O)CNC4=O)c3)ncc2Br)N1 [Example 539]
2.6	O=C1N[C@H](C(=O)NCCCNc2nc(Nc3cccc(N4C(=O)CNC4=O)c3)ncc2Br)CS1 [Example 535]

The remaining lines, values behind:

Structure (SMILES)	IC50 [nM]
CC(C)CC(=O)NCCCNc1nc(Nc2cccc(NC(=O)N3CCCC3)c2)ncc1Br [Example 473]	400
CCN(CCN1CCCCC1)C(=O)Nc1cccc(Nc2ncc(Br)c(NCCc3c[nH]cn3)n2)c1 [Example 389]	330
O=C1N[C@H](C(=O)NCCCNc2nc(Nc3cccc(NC(=O)N4CCCC4)c3)ncc2Br)CS1 [Example 452]	9.7
CN1CC(=O)N(c2cccc(Nc3ncc(Br)c(NCCc4c[nH]cn4)n3)c2)C1=O [Example 395]	32
CCOC(=O)NCCCNc1nc(Nc2cccc(NC(=O)N3CCCC3)c2)ncc1Br [Example 477]	740

Target: T2, Chk1 (Homo sapiens, UniProt O14757)
T2 construct: His6 (C); made in house; host or cells: Sf-9 insect cells (baculovirus)
T2 sequence (O14757 1-476): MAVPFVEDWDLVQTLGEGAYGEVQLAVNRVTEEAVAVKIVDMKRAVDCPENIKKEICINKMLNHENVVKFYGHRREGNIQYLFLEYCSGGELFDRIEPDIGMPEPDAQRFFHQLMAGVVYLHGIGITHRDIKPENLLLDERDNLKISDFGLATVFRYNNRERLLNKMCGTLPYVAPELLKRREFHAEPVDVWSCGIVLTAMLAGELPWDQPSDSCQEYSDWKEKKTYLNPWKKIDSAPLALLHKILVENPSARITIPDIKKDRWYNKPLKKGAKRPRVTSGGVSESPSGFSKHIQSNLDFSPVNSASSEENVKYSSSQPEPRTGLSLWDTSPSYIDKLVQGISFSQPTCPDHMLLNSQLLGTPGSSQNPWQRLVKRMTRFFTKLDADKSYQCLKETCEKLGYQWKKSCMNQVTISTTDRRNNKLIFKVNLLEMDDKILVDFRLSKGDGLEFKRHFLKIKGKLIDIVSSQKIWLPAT
Assay: Chk1 kinase assay (SPA)
Assay type: biochemical
Conditions: read-out: Chk-1 IC50
Excerpt: Recombinant Chk1-His6-fusion protein, expressed in insect cells (Sf-9) and purified by Ni-NTA affinity chromatography was used as kinase. Alternatively, commercially available GST-Chk1-fusion protein (Upstate Biotechnology, Dundee, Scotland) can be used. As substrate for the kinase reaction the biotinylated peptide biotin-Arg-Ser-Gly-Leu-Tyr-Arg-Ser-Pro-Ser-Met-Pro-Glu-Asn-Leu-Asn-Arg-Pro-Arg-OH was used which can be purchased e.g. from the company Biosyntan GmbH (Berlin-Buch, Germany).
Chk1 (200 ng/measurement point) was incubated for 60 min at 22 °C in the presence of different concentrations of test compounds (0 μM and concentrations in the range 0.001-30 μM) in 30 μl assay buffer [50 mM Hepes/NaOH pH7.5, 10 mM MgCl2, 1 mM MnCl2, 0.1 mM sodium ortho-vanadate, 1.0 mM dithiothreitol, 0.5 μM adenosine-tri-phosphate (ATP), 1.9 μM substrate peptide (Biotin-Arg-Ser-Gly-Leu-Tyr-Arg-Ser-ProSer-Met-Pro-Glu-Asn-Leu-Asn-Arg-Pro-Arg-OH), 6 nCi/measurement point ^33P-gamma ATP, 0.008% NP40, 1.5% (v/v) dimethylsulfoxide]. The reaction was stopped by the addition of 20 μl of a suspension of streptavidine coated PVT-SPA-beads (0.15 mg/measurement point, from Amersham Biotech) in an aqueous EDTA/ATP-solution (20 mM EDTA, 50 μM ATP, 1% (v/v) Triton X-100 in PBS).
The resulting mixture was incubated further 16 h at 22° C. to allow the binding of the biotinylated peptide to the streptavidine coated PVT-SPA-beads and to allow the sedimentation of the beads. Subsequently the amount of 33P incorporated into the substrate peptide was evaluated by scintillation measurement in a Topcount NXT (Perkin-Elmer).

IC50 [nM]	Structure (SMILES)
300	C#CCOc1nc(Nc2cc(NC(=O)[C@H](N)Cc3ccccc3)cc(NC(=O)N3CCCC3)c2)ncc1Br [Example A16]
80	C#CCOc1nc(Nc2cc(CO)cc(NCCO)c2)ncc1Br [Example A18, 3-[[5-Bromo-4-(prop-2-ynyloxy)pyrimidin-2-yl]amino]-5-[(2-hydroxyethyl)amino]benzenemethanol]
20	O=C(Cc1ccc(Cl)cc1Cl)NCCCNc1nc(Nc2cccc(NC(=O)N3CCCC3)c2)ncc1Br [Example 699]
440	Brc1cnc(Nc2cccc(CN3CC=CC3)c2)nc1NCCc1c[nH]cn1 [Example 65]
200	C#CCOc1nc(Nc2cc(CO)cc(NC(=O)[C@H](N)Cc3ccccc3)c2)ncc1Br [Example A17, (αR)-α-Amino-N-[3-[[5-bromo-4-(prop-2-ynyloxy)pyrimidin-2-yl]amino]-5-(hydroxymethyl)phenyl]benzenepropanamide]
